According to PMC7129073 (Clinical Microbiology and Infection, 2015):
Values after ≈ are worked out from the molar mass of the structure shown. Like-named read-outs stand apart in the source and are kept apart here.

How the values were obtained:
[1] = system: Coagulase Negative Staphylococci; assay: E-test susceptibility; assay type: cell-based
S. aureus [2] = assay: E-test susceptibility; assay type: cell-based, Staphylococcus aureus
S. pneumoniae [3] = assay: Broth microdilution; assay type: cell-based, Streptococcus pneumoniae; conditions: 275 isolates
F. necrophorum = assay: E-test, 13 clinical isolates; assay type: cell-based, Fusobacterium necrophorum; conditions: for MIC50 / MIC90: Fusobacterium necrophorum
C. difficile = assay: E-test, isolates from a department of surgery; assay type: cell-based, Clostridium difficile; conditions: Clostridioides difficile, read-out: MIC of high level resistant strains
[4] = system: foreign body infection Staphylococcus epidermidis strains; assay: NCCLS disk diffusion; assay type: cell-based; conditions: 86 strains
S. pneumoniae (SPN) [5] = assay: SENTRY Brazil, NCCLS broth microdilution; assay type: cell-based, Streptococcus pneumoniae
S. pneumoniae [6] = assay type: cell-based, Streptococcus pneumoniae
[7] = system: viridans group streptococci (VGS); assay: MIC; assay type: cell-based
C. jejuni ATCC 33560 = assay: VetMIC broth microdilution, QC strain; assay type: cell-based; conditions: Campylobacter jejuni, ATCC33560, read-out: QC limits (MIC)
C. glabrata = assay: Antifungal susceptibility; assay type: cell-based, Candida glabrata
C. albicans = assay: Antifungal susceptibility; assay type: cell-based, Candida albicans
[8] = system: Haemophilus influenzae (HI); assay: MIC; assay type: cell-based; conditions: 7489 isolates
[9] = system: Pseudomonas aeruginosa (PA); assay: MIC; assay type: cell-based
Enterobacteriaceae = assay: SMART 2003 Europe, microdilution; assay type: cell-based; conditions: 1948 isolates
S. pneumoniae (SPN) [10] = assay: NCCLS broth microdilution, fluoroquinolones 1999–2004; assay type: cell-based, Streptococcus pneumoniae; conditions: Streptococcus pneumoniae, read-out: MIC90 during the six years, 1999–2004
S. pneumoniae [11] = assay: PROTEKT Italy, NCCLS microdilution; assay type: cell-based, Streptococcus pneumoniae
E. coli [12] = assay: SMART 2003 Europe, microdilution; assay type: cell-based, Escherichia coli; conditions: 1106 isolates
Acinetobacter = assay: Disk diffusion; assay type: cell-based
[13] = system: Streptococcus agalactiae strains P0162 and P0425; assay: Microdilution; assay type: cell-based
S. pneumoniae [14] = assay: MIC of invasive strains, Saint George Hospital 2001–2004; assay type: cell-based, Streptococcus pneumoniae
S. pneumoniae [15] = assay: SELECT study, levofloxacin-treated RTIs caused by S. pneumoniae; assay type: in vivo, human
[16] = system: Streptococcus pyogenes (SPY); assay: MIC; assay type: cell-based; conditions: 2522 isolates
[17] = system: Streptococcus pneumoniae (SPN); assay: MIC; assay type: cell-based; conditions: 8378 isolates
Klebsiella = assay: SMART 2003 Europe, microdilution; assay type: cell-based, Klebsiella spp.; conditions: 341 isolates
[18] = system: Moraxella catarrhalis (MC); assay: MIC; assay type: cell-based; conditions: 2497 isolates
S. aureus [19] = assay: NCCLS broth microdilution, SSTI isolates; assay type: cell-based; conditions: Staphylococcus aureus
[20] = system: inducible Enterobacteriaceae; assay: SMART 2003, intraabdominal isolates; assay type: cell-based
Clostridium difficile = assay: microbe, parasite or virus in culture; assay type: cell-based
[21] = system: Clostridium difficile (CD); assay: Agar dilution MIC, CDAD isolates Montreal; assay type: cell-based; conditions: Clostridioides difficile
B. fragilis strains = assay: E-test MIC before and after passages on metronidazole agar; assay type: cell-based; conditions: Bacteroides fragilis
[22] = system: Pseudomonas aeruginosa (PSA); assay: Vitek 2 susceptibility, urine isolates of children; assay type: cell-based; conditions: both departments
Escherichia coli (ECO) = assay: Broth microdilution; assay type: cell-based; conditions: 2001
E. faecalis = assay: E-test susceptibility; assay type: cell-based, Enterococcus faecalis
Enterobacter spp = assay: E-test susceptibility; assay type: cell-based
Gram-negative rods = assay: Microscan MIC, blood culture isolates; assay type: cell-based
E. coli [23] = assay: E-test susceptibility; assay type: cell-based, Escherichia coli
K. oxytoca = assay: E-test susceptibility; assay type: cell-based, Klebsiella oxytoca
B.cepacia = assay: Italian survey of severe infections 2003, MIC; assay type: cell-based, Burkholderia cepacia
Pseudomonas spp. = assay: MIC; assay type: cell-based
B. fragilis group = assay: NCCLS broth microdilution, beta-lactamase positive isolates; assay type: cell-based, Bacteroides fragilis group; conditions: 449 isolates
A. baumannii = assay: Italian survey of severe infections 2003, MIC; assay type: cell-based, Acinetobacter baumannii
[24] = system: Salmonella serotype Typhimurium; assay: Disk diffusion, food isolates Spain; assay type: cell-based; conditions: n = 53
[25] = system: Salmonella serotype Enteritidis; assay: Disk diffusion, food isolates Spain; assay type: cell-based; conditions: n = 96
H.influenzae = assay: PROTEKT Italy, NCCLS microdilution; assay type: cell-based, Haemophilus influenzae
[26] = system: glycopeptide intermediate Staphylococcus species (GISS); assay: VITEK II, screening plate and E test, blood isolates; assay type: cell-based, coagulase-negative Staphylococci; conditions: 73 GISS strains
M. catarrhalis = assay: PROTEKT Italy, NCCLS microdilution; assay type: cell-based, Moraxella catarrhalis
S. aureus SCVs = assay: Resistance of small colony variants from cystic fibrosis patients; assay type: cell-based, Staphylococcus aureus; conditions: CF patients, Frankfurt 2004
H. influenzae [27] = assay: Broth microdilution; assay type: cell-based, Haemophilus influenzae; conditions: 267 isolates
H. influenzae [28] = assay type: cell-based, Haemophilus influenzae
[29] = UTI under TMP-SMX prophylaxis after renal transplantation; assay type: in vivo, human; conditions: prophylaxis for 12 months; 104 of 336 patients
S. maltophilia = assay: Susceptibility of respiratory isolates of cancer patients; assay type: cell-based, Stenotrophomonas maltophilia; conditions: 40 patients
H. influenzae [30] = assay: Disk diffusion, sputum isolates Athens 2001–2004; assay type: cell-based, Haemophilus influenzae
Escherichia coli = assay: Vitek 2 susceptibility, urine isolates of children; assay type: cell-based
[31] = ICU, SRGA breakpoints, tigecycline tentative S ≤2 μg/ml
[32] = 37 isolates selected as resistant to beta-lactams

CO[C@H]1/C=C/O[C@@]2(C)Oc3c(C)c(O)c4c(O)c(c(/C=N/N5CCN(C)CC5)c(O)c4c3C2=O)NC(=O)/C(C)=C\C=C\[C@H](C)[C@H](O)[C@@H](C)[C@@H](O)[C@@H](C)[C@H](OC(C)=O)[C@@H]1C [Rifampicin]
Susceptibility ([1]; ICU): 86%
Susceptibility ([1]; non-ICU): 97%
Susceptibility (S. aureus [2]; [31]): 99/99%
Susceptibility (S. aureus [2]; non-ICU): 99/99%

CCC[C@@H]1C[C@@H](C(=O)N[C@@H]([C@H]2O[C@H](SC)[C@H](O)[C@@H](O)[C@H]2O)[C@H](C)Cl)N(C)C1 [clindamycin]
Susceptibility (S. pneumoniae [3]): 91.3%
MIC range (F. necrophorum): 0.016 to 0.125 µg/mL
MIC50 (F. necrophorum): 0.032 µg/mL (≈ 0.0753 µM)
MIC90 (F. necrophorum): 0.064 µg/mL (≈ 0.151 µM)
MIC (C. difficile): > 256 µg/mL
% resistant [4]: More than 30%
% S (S. pneumoniae (SPN) [5]; 1998): 94/- %
% S (S. pneumoniae (SPN) [5]; 1999): 95/- %
% S (S. pneumoniae (SPN) [5]; 2000): 96/- %
% S (S. pneumoniae (SPN) [5]; 2001): 95/- %
% S (S. pneumoniae (SPN) [5]; 2002): 100/- %
% S (S. pneumoniae (SPN) [5]; 2003): 98/- %
resistant (S. pneumoniae [6]): 5%
Susceptibility (S. aureus [2]; [31]): 99%
Susceptibility (S. aureus [2]; non-ICU): 96%
MIC50 [7]: 0.06 µg/mL (≈ 0.141 µM)
MIC90 [7]: 256 µg/mL (≈ 602 µM)

CCN1CCN(c2cc3c(cc2F)c(=O)c(C(=O)O)cn3C2CC2)CC1 [enrofloxacin]
MIC (C. jejuni ATCC 33560): 0.25 to 0.5 µg/mL (≈ 0.696 to 1.39 µM)

CC(=O)N1CCN(c2ccc(OCC3COC(Cn4ccnc4)(c4ccc(Cl)cc4Cl)O3)cc2)CC1 (stereo not drawn) [ketokonazole]
intermediate susceptibility (C. glabrata): 22%
intermediate susceptibility (C. albicans): 2%

C[C@H]1COc2c(N3CCN(C)CC3)c(F)cc3c(=O)c(C(=O)O)cn1c23 [levofloxacin]
MIC90 [8]: 0.12 ig/ml
isolates with MPC ≥ 8 μg/ml [9]: 64%
MPC range ([9]; 10 billion organisms on agar): 2 to 16 µg/mL
MIC range ([9]; patients P1 and P2): 0.25 to 2 µg/mL
per cent susceptible (Enterobacteriaceae): 86%
Susceptibility (S. pneumoniae [3]): 99.6%
MIC90 (S. pneumoniae (SPN) [10]): 1 to 2 µg/mL (≈ 2.77 to 5.53 µM)
susceptible (S. pneumoniae [11]; year 1: 2002): 97.3%
susceptible (S. pneumoniae [11]; year 2: 2003): 97.1%
per cent susceptible (E. coli [12]): 81%
resistant isolates (Acinetobacter): 78.4%
MIC ([13]; strain P0162 (ParC Ser79Phe, GyrA Glu85Ala)): 8 µg/mL (≈ 22.1 µM)
MIC ([13]; strain P0425 (ParC Ser79Phe, GyrA Glu85Lys)): > 32 µg/mL
% S (S. pneumoniae [14]): 100%
%R (S. pneumoniae [14]): 0%
clinical successes (S. pneumoniae [15]; 500 mg once or twice daily, 90/100 subjects): 90%
clinical success, PNSSPs (S. pneumoniae [15]; 44/49): 89.8%
clinical success, PSSPs (S. pneumoniae [15]; 46/51): 90.2%
died due to initial infection (S. pneumoniae [15]; eight subjects): 8%
clinical failures (S. pneumoniae [15]; two subjects): 2%
MIC90 [16]: 1 ig/ml
MIC90 [17]: 1 ig/ml
per cent susceptible (Klebsiella): 93%
MIC90 [18]: 0.12 ig/ml
MIC50 (S. aureus [19]): 0.25 µg/mL (≈ 0.692 µM)
% susceptible ([20]; LA (N=113)): 80%
MIC50 [7]: 0.5 µg/mL (≈ 1.38 µM)
MIC90 [7]: 1 µg/mL (≈ 2.77 µM)

Cc1ncc([N+](=O)[O-])n1CCO [metronidazole]
MIC (Clostridium difficile; Clostridioides difficile, read-out: MICs of selected resistant isolates): 16 to 64 µg/mL (≈ 93.5 to 374 µM)
prevalence of resistance (Clostridium difficile; authors' institution): 6%
MIC ([21]; read-out: median MIC, 2003–4): 2 µg/mL (≈ 11.7 µM)
MIC ([21]; read-out: median MIC, other ribotypes): 0.5 µg/mL (≈ 2.92 µM)
MIC (B. fragilis strains; 10 nim-negative clinical isolates): 0.25 to 0.75 µg/mL (≈ 1.46 to 4.38 µM)
MIC (B. fragilis strains; ATCC25285, ATCC 25285, nim-negative): 0.19 µg/mL (≈ 1.11 µM)
MIC (B. fragilis strains; four nim-positive reference strains): 3 to 8 µg/mL (≈ 17.5 to 46.7 µM)
MIC (B. fragilis strains; three nim-positive clinical isolates): > 256 µg/mL
MIC range (F. necrophorum): 0.016 to 2 µg/mL
MIC50 (F. necrophorum): 0.125 µg/mL (≈ 0.73 µM)
MIC90 (F. necrophorum): 0.5 µg/mL (≈ 2.92 µM)

piperacillin/tazobactam
Susceptible isolates [22]: 74-100%
per cent susceptible (Enterobacteriaceae): 91%
susceptible (Escherichia coli (ECO); NAL-resistant isolates): 85.7%
susceptible (Escherichia coli (ECO); NAL-susceptible isolates): 94.2%
Susceptibility (E. faecalis; ICU, SRGA breakpoints, tigecycline tentative ≤2 μg/ml): 99%
Susceptibility (E. faecalis; non-ICU): 100%
Susceptible isolates (Enterobacter spp; ICU): 78%
Susceptible isolates (Enterobacter spp; non ICU): 93%
susceptible strains (n/N) (Gram-negative rods): 16/16
Susceptible isolates (E. coli [23]; [31]): 98%
Susceptible isolates (E. coli [23]; non ICU): 99%
Susceptible isolates (K. oxytoca; ICU): 100%
Susceptible isolates (K. oxytoca; non ICU): 94%
per cent susceptible (E. coli [12]): 94%
resistant isolates (Acinetobacter; [32]): 43.2%
resistance (B.cepacia): 7.2%
susceptible strains (Pseudomonas spp.): 92%
per cent susceptible (Klebsiella): 85%
isolates inhibited at =/< 32 mg/L (B. fragilis group): > 99%
% susceptible ([20]; A/P (N = 200)): 80%
% susceptible ([20]; EU (N = 354)): 85%
% susceptible ([20]; LA (N=113)): 78%
% susceptible ([20]; NA (N = 163)): 82%
resistance (A. baumannii): 13.3%

trimethoprim/sulfamethoxazole
resistance rate (NCCLS M100-S13) [24]: 19%
resistance rate (NCCLS M100-S13) [25]: 7%
resistance (H.influenzae; year 1): 13.6%
resistance (H.influenzae; year 2): 14.1%
resistance rate [26]: 38,3%
susceptibility rate (M. catarrhalis; year 1): 77.3%
susceptibility rate (M. catarrhalis; year 2): 81.1%
resistance rate of SCV isolates (S. aureus SCVs): All SCV isolates were resistant
susceptible (H. influenzae [27]): 54.3%
Susceptibility (S. pneumoniae [3]): 46.2%
resistant (H. influenzae [28]): 19%
resistant isolates (Acinetobacter; [32]): 59.5%
patients with UTI within 2 years after transplantation [29]: 31%
Susceptible isolates (S. maltophilia): 93%
resistance rate (H. influenzae [30]; 2001–2002): 26.9%
resistance rate (H. influenzae [30]; 2003–2004): 13.4%
susceptibility rate (Escherichia coli; paediatric surgical unit (PSU)): 35%
susceptibility rate (Escherichia coli; paediatric units (PU)): 71%
